These results are taken from US7888372B2, “Compositions and methods for modulating bone mineral deposition” (National Institutes of Health (NIH), priority 2001, dated 2011).

Experiment [1] deals with T1, TNAP activity (Mus musculus, UniProt P09242).
T1 sequence (P09242 18-501): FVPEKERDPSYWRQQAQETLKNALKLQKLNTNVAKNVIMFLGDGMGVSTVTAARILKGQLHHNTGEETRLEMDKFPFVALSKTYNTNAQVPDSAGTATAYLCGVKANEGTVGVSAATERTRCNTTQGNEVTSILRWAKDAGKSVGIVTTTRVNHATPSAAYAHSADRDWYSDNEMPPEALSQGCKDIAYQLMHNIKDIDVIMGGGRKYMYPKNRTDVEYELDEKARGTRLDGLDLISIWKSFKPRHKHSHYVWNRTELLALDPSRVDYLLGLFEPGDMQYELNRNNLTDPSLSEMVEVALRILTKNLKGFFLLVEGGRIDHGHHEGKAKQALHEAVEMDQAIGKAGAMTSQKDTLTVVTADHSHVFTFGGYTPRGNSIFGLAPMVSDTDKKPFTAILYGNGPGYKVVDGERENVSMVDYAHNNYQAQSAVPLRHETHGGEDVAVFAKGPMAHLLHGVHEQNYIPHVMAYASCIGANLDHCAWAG
On the set-up: endogenous in cells. To be noted: cited from earlier work.

Experiment [2] deals with PC-1-/- osteoblast cultures. Put plainly: Addition of recombinant proteins or PPi to PC-1-/- osteoblast cultures. In kind it is cell-based, mouse.
For experiment [3], the system named is ank/ank osteoblast cultures. Put plainly: Addition of recombinant proteins or PPi to ank/ank osteoblast cultures. The experiment is classed as cell-based, mouse.
The subject of experiment [4] is TNAP knock-out mice. To be noted: TNAP knock-out mice of Waymire et al.; cited from earlier work.

As for `N=C(N)NCCCC[C@H](N)C(=O)O` [L-homoarginine], the “kind of inhibitor of TNAP activity” value in experiment [1] was “specific uncompetitive inhibitors of TNAP activity”.
`O=P(O)(O)OP(=O)(O)O` [PPi, inorganic pyrophosphate, reference compound]: the osteopontin expression levels result in experiment [2] (osteoblast cultures deficient in PC-1) and in experiment [3] (osteoblast cultures deficient in ANK protein) was “corrected their osteopontin expression levels to those comparable to wild-type” each time.
Regarding `c1ccc([C@H]2CN3CCSC3=N2)cc1` [levamisole], in experiment [1], the “kind of inhibitor of TNAP activity” value is listed as “specific uncompetitive inhibitors of TNAP activity”.
On to `Cc1ncc(CO)c(CO)c1O.Cl` [vitamin B6], for which, in experiment [4], the epileptic seizures result is “partially rescue the epileptic seizures” and the life span entry is reported as “prolonging their life”.
Consider “recombinant osteopontin: recombinant osteopontin added to osteoblast cultures”, for which the “mineralization capacity (matrix calcification)” value in experiment [2] (PC-1-/- osteoblast cultures) and in experiment [3] (ank/ank osteoblast cultures) was “restored to normal” each time.
